# Target: T1, KRAS G12D (Homo sapiens, UniProt P01116, G12D)
# T1 construct: AsPc-1-KRAS (G12D)-HiBit-KI cell (Pharmaron); host or cells: AsPc-1-KRAS (G12D)-HiBit-KI cells (HiBiT knock-in at the endogenous KRAS locus)
# Assay: KRAS G12D HiBit assay
# Assay type: cell-based
# Conditions: AsPc-1-KRAS (G12D)-HiBit-KI cell, compound treatment for 24 hours, absolute DC50; class symbols
# Procedure: Day 1. […] Allowed cells to reach approximately 80% confluence before splitting. Rinsed cultivated cells in T-75 flasks with 5 mL PBS (Solarbio, P1020-500). […] Inactivated trypsin by adding excessive serum containing medium. Harvested the cells from flask into cell culture medium and counted the cell number.
# Day 2. Test compounds were dissolved at 0.3 mM in DMSO (Solarbio, D8371) as stock solution. […] Performed 3-fold, 10-points dilution via transferring 15 μL compound into 30 μL DMSO by using TECAN liquid handler (TECAN, Freedom EVO200).
# Day 3. After compound treatment for 24 hours, removed the plate from incubators and equilibrated at room temperature for 15 minutes. Prepared the HiBit reagent (Promega, N3040) by mixing 10 mL of Nano-Glo®-HiBiT Lytic Buffer with 200 μL of Nano-Glo®-HiBiT Lytic Substrate and 100 μL of LgBiT Protein. Added 20 μL of HiBit reagent into each well of the cell plate and spun the plates at room temperature at 1,000 RPM for 1 minute.
# The inhibition activity was calculated using the following formula:
# [formula] where HC (high control) is obtained from cells treated with 0.1% DMSO only.
# T1 sequence (P01116 1-188 isoform P01116-2 G12D): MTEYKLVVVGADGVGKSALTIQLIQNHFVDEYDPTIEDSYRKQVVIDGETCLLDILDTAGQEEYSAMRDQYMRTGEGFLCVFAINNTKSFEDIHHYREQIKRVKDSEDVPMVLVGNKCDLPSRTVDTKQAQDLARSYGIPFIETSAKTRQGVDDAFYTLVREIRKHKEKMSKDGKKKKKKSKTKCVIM
row,Structure (SMILES),DC50 [nM]
1,C#Cc1c(F)ccc2cccc(-c3ncc4c(N5CCC[C@@](C)(O)C5)nc(OC[C@@]56CCCN5[C@H](COC(=O)N5CCC(CN7CCC(c8ccc9c(c8)n(C8CCC(=O)NC8=O)c(=O)n9C)CC7)CC5)CC6)nc4c3F)c12 (stereo partly shown) [Compound 136],> 300
2,C#Cc1c(F)ccc2cc(O)cc(-c3ncc4c(N5CCC[C@@](C)(O)C5)nc(OCC5(CN6CCC(N7CCN(c8ccc9c(c8)n(C)c(=O)n9C8CCC(=O)NC8=O)CC7)CC6)CC5)nc4c3F)c12 (stereo partly shown) [Compound 30],< 100
3,C#Cc1c(F)ccc2cccc(-c3ncc4c(N5CCC[C@@](C)(O)C5)nc(OCC5(CN6CCN(Cc7ccc8c(c7)n(C)c(=O)n8C7CCC(=O)NC7=O)CC6)CC5)nc4c3F)c12 (stereo partly shown) [Compound 37],> 300
4,C#Cc1c(F)ccc2cccc(-c3ncc4c(N5CCC[C@@](C)(O)C5)nc(OCC5(CN6CCC(N7CCN(c8ccc9c(c8)n(C)c(=O)n9C8CCC(=O)NC8=O)CC7)CC6)CC5)nc4c3F)c12 (stereo partly shown) [Compound 29],> 300
5,C#Cc1c(F)ccc2cccc(-c3ncc4c(N5CCC[C@@](C)(O)C5)nc(OCC5(CN6CCN(CC7CCN(c8ccc9c(c8)n(C)c(=O)n9C8CCC(=O)NC8=O)CC7)CC6)CC5)nc4c3F)c12 (stereo partly shown) [Compound 24],> 300
6,C#Cc1c(F)ccc2cccc(-c3ncc4c(N5CCC[C@@](C)(O)C5)nc(OCC5(CN6CCC7(CC6)CC(N6CCC(c8ccc9c(C%10CCC(=O)NC%10=O)nn(C)c9c8)CC6)C7)CC5)nc4c3F)c12 (stereo partly shown) [Compound 35],> 300
7,"CCc1c(F)ccc2cc(O)cc(-c3ncc4c(N5CCC[C@@](C)(O)C5)nc(OC[C@@]56CCCN5[C@H](COC(=O)NCCOCCOCCOc5ccc7c(c5)n(C)c(=O)n7C5CCC(=O)NC5=O)CC6)nc4c3F)c12 (stereo partly drawn) [Compound 113, ((3S,7aS)-7a-(((7-(8-Ethyl-7-fluoro-3-hydroxynaphthalen-1-yl)-8-fluoro-4-((R)-3-hydroxy-3-methylpiperidin-1-yl)pyrido[4,3-d]pyrimidin-2-yl)oxy)methyl)hexahydro-1H-pyrrolizin-3-yl)methyl (2-(2-(2-((1-(2,6-dioxopiperidin-3-yl)-3-methyl-2-oxo-2,3-dihydro-1H-benzo[d]imidazol-5-yl)oxy)ethoxy)ethoxy)ethyl) carbamate]",> 300
8,C#Cc1c(F)ccc2cccc(-c3ncc4c(N5CCC[C@@](C)(O)C5)nc(OCC5(CN6CCC(CN7CCC(c8ccc9c(c8)n(C)c(=O)n9C8CCC(=O)NC8=O)CC7)CC6)CC5)nc4c3F)c12 (stereo partly shown) [Compound 48],> 300
9,C#Cc1c(F)ccc2cc(O)cc(-c3ncc4c(N5CCC[C@@](C)(O)C5)nc(OCC5(CN6CCN(C7CCN(c8ccc9c(c8)n(C)c(=O)n9C8CCC(=O)NC8=O)CC7)CC6)CC5)nc4c3F)c12 (stereo partly shown) [Compound 45],< 100
10,C#Cc1c(F)ccc2cc(O)cc(-c3ncc4c(N5CCC[C@@](C)(O)C5)nc(OCC5(CN6CCC(CN7CCN(c8ccc9c(c8)C(=O)N(C8CCC(=O)NC8=O)C9=O)CC7)CC6)CC5)nc4c3F)c12 (stereo partly shown) [Compound 46],< 100
11,C#Cc1c(F)ccc2cccc(-c3ncc4c(N5CCC[C@@](C)(O)C5)nc(OCC5(CN6CCN(CCN7CCN(c8ccc9c(c8)n(C)c(=O)n9C8CCC(=O)NC8=O)CC7)CC6)CC5)nc4c3F)c12 (stereo partly shown) [Compound 27],> 300

# Same assay, conditions: AsPc-1-KRAS (G12D)-HiBit-KI cell, compound treatment for 24 hours, absolute DC50; numeric bounds given in place of class symbols
row,Structure (SMILES),DC50 [nM]
1,C#Cc1c(F)ccc2cccc(-c3ncc4c(N5CCC[C@@](C)(O)C5)nc(OCC5(CN6CCC7(CC6)CCN(c6ccc8c(c6)n(C)c(=O)n8C6CCC(=O)NC6=O)CC7)CC5)nc4c3F)c12 (stereo partly shown) [Compound 38],> 100
2,C#Cc1c(F)ccc2cccc(-c3ncc4c(N5CCC[C@@](C)(O)C5)nc(OCC5(CN6CCC7(CC6)CC(N6CCC(c8cccc9c8n(C)c(=O)n9C8CCC(=O)NC8=O)CC6)C7)CC5)nc4c3F)c12 (stereo partly shown) [Compound 44],> 100

# From patent US12599672B2, “KRAS proteolysis targeting chimeras” (PAQ Therapeutics Inc., priority 2023, dated 2026)
